In ChEMBL document CHEMBL4804286, “3-amino-4-(4-(4 (dimethylcarbamoyl) phenyl)-1,4-diazepan-1-yl) thieno [2,3-b] pyridine-2-carboxamide for use in cancer therapy and formulations comprising the same” (2020):
“And” between values parts separate entries of the source, which are not always exact repeats. Identical values can stand only once. The source made the active and inactive calls. No cut-off for these calls is given here.

Key:
[1] = test system: Tyrosine-protein kinase ABL1 (Homo sapiens), P00519 [UNDEFINED MUTATION]; test: Inhibition of phosphorylated human ABL1 […] mutant assessed as percent of control at 2000 nM by KINOMEscan assay relative to control; set-up: scale not given: the % may be the effect or the level left
[2] = test system: Tyrosine-protein kinase ABL1 (Homo sapiens), P00519 [Y253F]; test: Inhibition of phosphorylated human ABL1 Y253F mutant assessed as percent of control at 2000 nM by KINOMEscan assay relative to control; set-up: scale not given: the % may be the effect or the level left
[3] = target: RAC-beta serine/threonine-protein kinase (Homo sapiens) (UniProt P31751); test: Inhibition of human AKT2 assessed as percent of control at 2000 nM by KINOMEscan assay relative to control; set-up: scale not given: the % may be the effect or the level left
Chain of RAC-beta serine/threonine-protein kinase (Homo sapiens) (P31751 whole entry): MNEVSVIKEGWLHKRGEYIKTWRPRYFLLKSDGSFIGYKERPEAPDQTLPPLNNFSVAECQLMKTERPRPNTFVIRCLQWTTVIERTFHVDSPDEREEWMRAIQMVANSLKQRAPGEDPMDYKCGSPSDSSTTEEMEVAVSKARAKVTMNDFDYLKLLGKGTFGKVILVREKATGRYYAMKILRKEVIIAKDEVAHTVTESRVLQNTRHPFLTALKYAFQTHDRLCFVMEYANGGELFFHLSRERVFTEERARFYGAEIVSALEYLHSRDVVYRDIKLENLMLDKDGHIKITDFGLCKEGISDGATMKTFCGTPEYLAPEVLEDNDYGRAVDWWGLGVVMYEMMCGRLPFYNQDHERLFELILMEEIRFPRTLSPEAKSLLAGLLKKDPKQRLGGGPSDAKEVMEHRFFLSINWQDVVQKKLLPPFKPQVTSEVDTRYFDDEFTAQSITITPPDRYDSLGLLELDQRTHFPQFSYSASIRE

[4] = target: RAC-gamma serine/threonine-protein kinase (Homo sapiens) (UniProt Q9Y243); test: Inhibition of human AKT3 assessed as percent of control at 2000 nM by KINOMEscan assay relative to control; set-up: scale not given: the % may be the effect or the level left
[5] = target: Mitogen-activated protein kinase kinase kinase 5 (Homo sapiens) (UniProt Q99683); test: Inhibition of human ASK1 assessed as percent of control at 2000 nM by KINOMEscan assay relative to control; set-up: scale not given: the % may be the effect or the level left
Chain of Mitogen-activated protein kinase kinase kinase 5 (Homo sapiens) (Q99683 whole entry): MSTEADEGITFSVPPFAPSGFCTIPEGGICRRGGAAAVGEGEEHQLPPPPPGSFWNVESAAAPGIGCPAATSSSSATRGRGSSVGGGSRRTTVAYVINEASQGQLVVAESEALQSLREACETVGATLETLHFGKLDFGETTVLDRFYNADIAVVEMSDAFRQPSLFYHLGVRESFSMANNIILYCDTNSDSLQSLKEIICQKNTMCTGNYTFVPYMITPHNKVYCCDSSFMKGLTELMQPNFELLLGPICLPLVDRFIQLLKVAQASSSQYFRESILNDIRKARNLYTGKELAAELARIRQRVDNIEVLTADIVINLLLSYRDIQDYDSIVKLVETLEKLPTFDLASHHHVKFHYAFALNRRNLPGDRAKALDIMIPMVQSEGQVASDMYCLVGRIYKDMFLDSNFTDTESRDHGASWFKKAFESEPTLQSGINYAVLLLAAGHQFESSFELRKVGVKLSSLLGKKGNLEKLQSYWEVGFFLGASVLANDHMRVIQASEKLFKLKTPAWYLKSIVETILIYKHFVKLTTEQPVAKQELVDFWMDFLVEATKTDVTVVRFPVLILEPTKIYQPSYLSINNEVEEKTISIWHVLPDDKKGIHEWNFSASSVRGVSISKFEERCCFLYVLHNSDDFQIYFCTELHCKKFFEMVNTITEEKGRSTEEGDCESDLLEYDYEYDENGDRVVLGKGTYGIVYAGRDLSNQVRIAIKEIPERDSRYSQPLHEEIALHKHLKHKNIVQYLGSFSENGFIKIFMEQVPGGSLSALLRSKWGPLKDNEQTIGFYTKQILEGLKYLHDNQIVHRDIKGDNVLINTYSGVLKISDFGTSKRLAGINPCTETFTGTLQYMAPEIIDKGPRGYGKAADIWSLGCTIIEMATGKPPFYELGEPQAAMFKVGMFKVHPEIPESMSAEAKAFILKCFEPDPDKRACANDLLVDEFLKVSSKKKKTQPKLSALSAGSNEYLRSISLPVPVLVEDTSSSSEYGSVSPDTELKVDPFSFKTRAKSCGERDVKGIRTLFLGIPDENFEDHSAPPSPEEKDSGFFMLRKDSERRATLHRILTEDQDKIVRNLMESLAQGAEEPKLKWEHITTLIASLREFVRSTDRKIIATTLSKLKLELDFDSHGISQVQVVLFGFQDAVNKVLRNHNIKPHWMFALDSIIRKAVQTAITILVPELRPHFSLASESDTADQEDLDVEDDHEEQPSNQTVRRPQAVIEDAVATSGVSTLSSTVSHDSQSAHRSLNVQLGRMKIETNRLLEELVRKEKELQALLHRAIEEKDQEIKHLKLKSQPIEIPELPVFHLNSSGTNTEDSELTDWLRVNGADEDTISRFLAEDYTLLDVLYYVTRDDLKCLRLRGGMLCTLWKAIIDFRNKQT

[6] = target: Cytoplasmic tyrosine-protein kinase BMX (Homo sapiens) (UniProt P51813); test: Inhibition of human BMX assessed as percent of control at 2000 nM by KINOMEscan assay relative to control; set-up: scale not given: the % may be the effect or the level left
Chain of Cytoplasmic tyrosine-protein kinase BMX (Homo sapiens) (P51813 whole entry): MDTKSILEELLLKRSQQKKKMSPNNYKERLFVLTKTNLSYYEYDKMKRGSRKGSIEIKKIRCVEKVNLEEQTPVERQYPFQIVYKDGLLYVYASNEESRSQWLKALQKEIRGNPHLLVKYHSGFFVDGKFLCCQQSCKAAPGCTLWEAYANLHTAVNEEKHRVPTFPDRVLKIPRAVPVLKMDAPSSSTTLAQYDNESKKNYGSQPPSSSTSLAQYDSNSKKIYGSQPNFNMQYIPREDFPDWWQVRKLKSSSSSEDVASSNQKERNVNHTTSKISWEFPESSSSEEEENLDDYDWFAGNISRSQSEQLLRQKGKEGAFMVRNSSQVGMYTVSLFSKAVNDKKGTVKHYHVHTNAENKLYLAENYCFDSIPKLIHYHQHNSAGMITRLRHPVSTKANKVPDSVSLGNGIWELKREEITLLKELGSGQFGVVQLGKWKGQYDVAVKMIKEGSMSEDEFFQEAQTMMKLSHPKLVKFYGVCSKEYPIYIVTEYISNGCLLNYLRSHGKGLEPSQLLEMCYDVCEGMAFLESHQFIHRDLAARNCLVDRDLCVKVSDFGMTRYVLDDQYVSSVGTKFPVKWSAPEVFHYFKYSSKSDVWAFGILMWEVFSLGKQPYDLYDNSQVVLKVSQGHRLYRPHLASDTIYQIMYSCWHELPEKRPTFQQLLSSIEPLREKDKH

[7] = target: Serine/threonine-protein kinase B-raf (Homo sapiens) (UniProt P15056); test: Inhibition of human BRAF assessed as percent of control at 2000 nM by KINOMEscan assay relative to control; set-up: scale not given: the % may be the effect or the level left
[8] = target: Cyclin-dependent kinase 19 (Homo sapiens) (UniProt Q9BWU1); test: Inhibition of human CDK11 assessed as percent of control at 2000 nM by KINOMEscan assay relative to control; set-up: scale not given: the % may be the effect or the level left; conditions: INHIBITOR
[9] = test system: Epidermal growth factor receptor (Homo sapiens), P00533 [UNDEFINED MUTATION]; test: Inhibition of human EGFR L747-S752del/P753S double mutant assessed as percent of control at 2000 nM by KINOMEscan assay relative to control; set-up: scale not given: the % may be the effect or the level left
[10] = test system: Epidermal growth factor receptor (Homo sapiens), P00533 [L861Q]; test: Inhibition of human EGFR L861Q mutant assessed as percent of control at 2000 nM by KINOMEscan assay relative to control; set-up: scale not given: the % may be the effect or the level left
[11] = target: Ephrin type-A receptor 7 (Homo sapiens) (UniProt Q15375); test: Inhibition of human EPHA7 assessed as percent of control at 2000 nM by KINOMEscan assay relative to control; set-up: scale not given: the % may be the effect or the level left
Chain of Ephrin type-A receptor 7 (Homo sapiens) (Q15375 28-998 limits assumed): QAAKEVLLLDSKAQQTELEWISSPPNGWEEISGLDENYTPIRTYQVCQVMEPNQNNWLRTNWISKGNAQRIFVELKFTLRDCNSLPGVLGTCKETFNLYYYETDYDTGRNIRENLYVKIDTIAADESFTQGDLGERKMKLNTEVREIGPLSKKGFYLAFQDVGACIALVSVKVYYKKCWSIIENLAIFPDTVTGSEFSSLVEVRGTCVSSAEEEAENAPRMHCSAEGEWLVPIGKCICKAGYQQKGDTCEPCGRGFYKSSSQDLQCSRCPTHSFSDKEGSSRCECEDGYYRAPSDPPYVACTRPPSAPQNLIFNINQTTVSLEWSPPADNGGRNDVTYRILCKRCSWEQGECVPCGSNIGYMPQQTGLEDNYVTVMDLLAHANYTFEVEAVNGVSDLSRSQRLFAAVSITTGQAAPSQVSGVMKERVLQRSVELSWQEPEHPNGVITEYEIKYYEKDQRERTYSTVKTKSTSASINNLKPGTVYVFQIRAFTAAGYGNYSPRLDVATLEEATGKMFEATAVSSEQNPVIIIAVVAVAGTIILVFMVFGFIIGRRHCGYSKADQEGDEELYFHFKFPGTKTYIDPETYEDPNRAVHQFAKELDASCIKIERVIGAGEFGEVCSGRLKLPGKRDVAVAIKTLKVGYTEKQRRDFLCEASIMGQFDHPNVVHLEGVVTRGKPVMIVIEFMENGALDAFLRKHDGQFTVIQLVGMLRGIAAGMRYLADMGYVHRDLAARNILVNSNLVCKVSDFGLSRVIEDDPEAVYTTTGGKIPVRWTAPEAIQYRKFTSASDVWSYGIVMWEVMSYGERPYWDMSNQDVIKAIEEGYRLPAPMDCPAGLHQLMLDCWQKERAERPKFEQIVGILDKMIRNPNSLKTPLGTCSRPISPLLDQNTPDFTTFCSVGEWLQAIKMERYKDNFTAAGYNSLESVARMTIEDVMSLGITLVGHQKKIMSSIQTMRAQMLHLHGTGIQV

[12] = target: Serine/threonine-protein kinase/endoribonuclease IRE1 (Homo sapiens) (UniProt O75460); test: Inhibition of human ERN1 assessed as percent of control at 2000 nM by KINOMEscan assay relative to control; set-up: scale not given: the % may be the effect or the level left
[13] = test system: Receptor-type tyrosine-protein kinase FLT3 (Homo sapiens), P36888 [UNDEFINED MUTATION]; test: Inhibition of human FLT3 ITD mutant assessed as percent of control at 2000 nM by KINOMEscan assay relative to control; set-up: scale not given: the % may be the effect or the level left
[14] = target: Beta-adrenergic receptor kinase 1 (Homo sapiens) (UniProt P25098); test: Inhibition of human GRK2 assessed as percent of control at 2000 nM by KINOMEscan assay relative to control; set-up: scale not given: the % may be the effect or the level left
[15] = target: Rhodopsin kinase GRK7 (Homo sapiens) (UniProt Q8WTQ7); test: Inhibition of human GRK7 assessed as percent of control at 2000 nM by KINOMEscan assay relative to control; set-up: scale not given: the % may be the effect or the level left
[16] = target: Homeodomain-interacting protein kinase 2 (Homo sapiens) (UniProt Q9H2X6); test: Inhibition of human HIPK2 assessed as percent of control at 2000 nM by KINOMEscan assay relative to control; set-up: scale not given: the % may be the effect or the level left
[17] = target: Inhibitor of nuclear factor kappa-B kinase subunit beta (Homo sapiens) (UniProt O14920); test: Inhibition of human IKK-beta assessed as percent of control at 2000 nM by KINOMEscan assay relative to control; set-up: scale not given: the % may be the effect or the level left
Chain of Inhibitor of nuclear factor kappa-B kinase subunit beta (Homo sapiens) (O14920 whole entry): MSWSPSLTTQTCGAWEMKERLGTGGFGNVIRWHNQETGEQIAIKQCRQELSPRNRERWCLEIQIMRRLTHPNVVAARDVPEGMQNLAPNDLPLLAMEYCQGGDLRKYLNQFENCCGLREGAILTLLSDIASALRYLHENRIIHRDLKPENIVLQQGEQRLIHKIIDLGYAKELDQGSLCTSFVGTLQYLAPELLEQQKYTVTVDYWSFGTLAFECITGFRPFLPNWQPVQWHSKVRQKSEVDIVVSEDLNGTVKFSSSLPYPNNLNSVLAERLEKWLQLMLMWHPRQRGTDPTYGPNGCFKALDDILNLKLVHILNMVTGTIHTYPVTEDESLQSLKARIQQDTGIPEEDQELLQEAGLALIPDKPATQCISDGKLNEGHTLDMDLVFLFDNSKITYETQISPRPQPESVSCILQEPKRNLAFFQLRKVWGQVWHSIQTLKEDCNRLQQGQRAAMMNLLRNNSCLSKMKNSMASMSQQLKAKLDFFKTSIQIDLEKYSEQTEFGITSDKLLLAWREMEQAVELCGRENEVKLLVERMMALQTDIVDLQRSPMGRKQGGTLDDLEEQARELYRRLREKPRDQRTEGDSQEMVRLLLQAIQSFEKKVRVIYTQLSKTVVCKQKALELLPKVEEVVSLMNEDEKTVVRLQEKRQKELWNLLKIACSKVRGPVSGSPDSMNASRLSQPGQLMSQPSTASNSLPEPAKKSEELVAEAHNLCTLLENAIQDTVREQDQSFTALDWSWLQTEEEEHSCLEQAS

[18] = test system: Mast/stem cell growth factor receptor Kit (Homo sapiens), P10721 [L576P]; test: Inhibition of human KIT L576P mutant assessed as percent of control at 2000 nM by KINOMEscan assay relative to control; set-up: scale not given: the % may be the effect or the level left
[19] = target: Tyrosine-protein kinase Lyn (Homo sapiens) (UniProt P07948); test: Inhibition of human LYN assessed as percent of control at 2000 nM by KINOMEscan assay relative to control; set-up: scale not given: the % may be the effect or the level left
[20] = target: Mitogen-activated protein kinase kinase kinase kinase 4 (Homo sapiens) (UniProt O95819); test: Inhibition of human MAP4K4 assessed as percent of control at 2000 nM by KINOMEscan assay relative to control; set-up: scale not given: the % may be the effect or the level left
[21] = target: Serine/threonine-protein kinase 4 (Homo sapiens) (UniProt Q13043); test: Inhibition of human MST1 assessed as percent of control at 2000 nM by KINOMEscan assay relative to control; set-up: scale not given: the % may be the effect or the level left
[22] = target: Myosin-IIIa (Homo sapiens) (UniProt Q8NEV4); test: Inhibition of human MYO3A assessed as percent of control at 2000 nM by KINOMEscan assay relative to control; set-up: scale not given: the % may be the effect or the level left
[23] = target: Serine/threonine-protein kinase Nek11 (Homo sapiens) (UniProt Q8NG66); test: Inhibition of human NEK11 assessed as percent of control at 2000 nM by KINOMEscan assay relative to control; set-up: scale not given: the % may be the effect or the level left
[24] = target: Serine/threonine-protein kinase Nek5 (Homo sapiens) (UniProt Q6P3R8); test: Inhibition of human NEK5 assessed as percent of control at 2000 nM by KINOMEscan assay relative to control; set-up: scale not given: the % may be the effect or the level left
Chain of Serine/threonine-protein kinase Nek5 (Homo sapiens) (Q6P3R8 whole entry): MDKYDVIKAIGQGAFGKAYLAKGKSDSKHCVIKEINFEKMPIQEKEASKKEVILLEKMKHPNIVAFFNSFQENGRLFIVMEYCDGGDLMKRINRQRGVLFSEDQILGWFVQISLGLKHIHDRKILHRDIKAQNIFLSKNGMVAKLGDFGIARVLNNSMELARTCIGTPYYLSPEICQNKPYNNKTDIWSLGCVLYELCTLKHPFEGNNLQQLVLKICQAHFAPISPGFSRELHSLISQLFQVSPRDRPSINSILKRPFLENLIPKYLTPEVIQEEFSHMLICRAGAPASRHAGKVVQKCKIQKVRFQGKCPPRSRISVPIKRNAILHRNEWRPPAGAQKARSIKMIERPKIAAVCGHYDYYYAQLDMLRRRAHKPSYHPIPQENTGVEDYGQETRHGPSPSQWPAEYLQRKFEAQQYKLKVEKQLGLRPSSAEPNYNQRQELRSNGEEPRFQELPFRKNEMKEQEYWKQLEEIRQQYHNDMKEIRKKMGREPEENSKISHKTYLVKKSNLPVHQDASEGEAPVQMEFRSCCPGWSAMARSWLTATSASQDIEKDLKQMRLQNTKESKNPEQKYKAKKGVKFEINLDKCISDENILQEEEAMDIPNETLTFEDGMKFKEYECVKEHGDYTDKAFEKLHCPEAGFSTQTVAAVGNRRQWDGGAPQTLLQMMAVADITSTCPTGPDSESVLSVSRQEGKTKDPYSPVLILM

[25] = target: Serine/threonine-protein kinase Nek9 (Homo sapiens) (UniProt Q8TD19); test: Inhibition of human NEK9 assessed as percent of control at 2000 nM by KINOMEscan assay relative to control; set-up: scale not given: the % may be the effect or the level left
[26] = target: Serine/threonine-protein kinase PAK 4 (Homo sapiens) (UniProt O96013); test: Inhibition of human PAK4 assessed as percent of control at 2000 nM by KINOMEscan assay relative to control; set-up: scale not given: the % may be the effect or the level left
[27] = target: Protein kinase C iota type (Homo sapiens) (UniProt P41743); test: Inhibition of human PRKCI assessed as percent of control at 2000 nM by KINOMEscan assay relative to control; set-up: scale not given: the % may be the effect or the level left
[28] = test system: Proto-oncogene tyrosine-protein kinase receptor Ret (Homo sapiens), P07949 [V804L]; test: Inhibition of human RET V804L mutant assessed as percent of control at 2000 nM by KINOMEscan assay relative to control; set-up: scale not given: the % may be the effect or the level left
[29] = target: Ribosomal protein S6 kinase alpha-4 (Homo sapiens) (UniProt O75676); test: Inhibition of human N-terminal RPS6KA4 kinase domain assessed as percent of control at 2000 nM by KINOMEscan assay relative to control; set-up: scale not given: the % may be the effect or the level left
[30] = target: Serine/threonine-protein kinase 16 (Homo sapiens) (UniProt O75716); test: Inhibition of human STK16 assessed as percent of control at 2000 nM by KINOMEscan assay relative to control; set-up: scale not given: the % may be the effect or the level left
Myc-CaP = test: Antiproliferative activity against murine castration-resistant Myc-CaP cells at 1 uM assessed as growth inhibition relative to control; type: functional; conditions: Mus musculus

Structure (SMILES): CN(C)C(=O)c1ccc(N2CCCN(c3ccnc4sc(C(N)=O)c(N)c34)CC2)cc1
- Activity [1]: 94% and 77%
- Activity [2]: 100% and 81%
- Activity [3]: 86% and 99%
- Activity [4]: 97% and 100%
- Activity [5]: 100%
- Activity [6]: 93% and 100%
- Activity [7]: 100% and 96%
- Activity [8]: 13% and 0%
- Activity [9]: 99% and 100%
- Activity [10]: 78% and 100%
- Activity [11]: 92% and 81%
- Activity [12]: 100% and 80%
- Activity [13]: 82% and 72%
- Activity [14]: 88% and 70%
- Activity [15]: 100% and 92%
- Activity [16]: 100% and 81%
- Activity [17]: 89% and 71%
- Activity [18]: 96% and 75%
- Activity [19]: 100% and 98%
- Activity [20]: 100% and 93%
- Activity [21]: 100% and 98%
- Activity [22]: 100%
- Activity [23]: 90% and 86%
- Activity [24]: 94% and 100%
- Activity [25]: 100% and 89%
- Activity [26]: 87% and 100%
- Activity [27]: 100%
- Activity [28]: 100%
- Activity [29]: 96% and 100%
- Activity [30]: 80% and 87%
- Activity (Myc-CaP): Active
